Experimental data from PMC5040960, “A single molecule assay to probe monovalent and multivalent bonds between hyaluronan and its key leukocyte receptor CD44 under force” (Scientific Reports, 2016).

Target: T1, streptavidin (SAv) (Streptomyces avidinii, UniProt P22629)
T1 construct: commercial lyophilized streptavidin (Sigma Aldrich), homotetramer, immobilised as monolayer on biotinylated OEG
Test: AFM single molecule force spectroscopy, Bell-Evans fit
Format: binding
Details: labelled compound (biotin tethered to AFM tip by PEG linker and thiol-gold bond); koff extrapolated to zero force; 10 mM HEPES pH 7.4, 150 mM NaCl, ambient temperature
Text: AFM single molecule force spectroscopy, Bell-Evans fit on streptavidin (SAv)

T1 sequence (P22629 25-183): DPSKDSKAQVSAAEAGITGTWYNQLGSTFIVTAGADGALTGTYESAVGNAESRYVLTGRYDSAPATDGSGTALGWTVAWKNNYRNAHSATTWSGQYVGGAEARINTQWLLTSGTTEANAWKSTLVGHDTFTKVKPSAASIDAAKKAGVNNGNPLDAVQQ

biotin
koff: 1.40 ± 0.59 s⁻¹
